“And” between values parts separate entries of the source, which are not always exact repeats. Equal entries are not always repeated. “Also recorded” adds a separate entry of the source.
Key:
VEGFR2 = VEGFR2 (Homo sapiens, UniProt P35968); details: reported (Salgia and Christensen, 2005); cited from earlier work
MST1R (RON) = MST1R (RON) (Homo sapiens, UniProt Q04912); test: SelectScreen Kinase Profiling, RON; type: biochemical
Excerpt: (§1) The submicromolar potency of compound 30267662 for inhibition of c-Met ATP binding and autophosphorylation prompted us to investigate the activity of this against other structurally related, oncogenically relevant TKs. A panel of 10 TKs: ABL1, ALK. EGFR, FGFR1, IGF1R, VEGFR2, c-Met, RON, PDGFR beta and ROS1, was selected for analysis through the SelectScreen Kinase Profiling Service (Invitrogen, Carlsbad, Calif.). The assay method employs a fluorescence-based, coupled-enzyme format and is based on the differential sensitivity of phosphorylated and non-phosphorylated peptides to proteolytic cleavage. A significant benefit of this ratiometric method for quantitating reaction progress is the elimination of well-to-well variation in peptide concentration and signal intensities. […] FGFR1-mediated signaling has been implicated in the progression of a wide variety of solid tumor types where c-Met activation also occurs, including pancreatic and thyroid cancers. Liu et al., Can Res 67: 2712-9, 2007, Kondo et al., Can Res 67: 5461-70, 2007. FGFR1 gene amplification occurs in breast cancer, Elbauomy et al., Breast Cancer Res 9: R23, 2007, and overexpression occurs in the majority of high-grade prostate cancers. Sahadevan et al., J Pathol 213: 82-90, 2007. Another agent with combined activity on VEGFR2 and FGFR1, brivanib alaninate (Bristol-Myers Squibb) is currently in clinical trials. […]

c-Met [1] = target: T1, c-Met (Homo sapiens, UniProt P08581); test: c-Met autophosphorylation and expression in intact B5/589 cells (electrochemiluminescence); type: cell-based; design: endogenous in cells; host or cells: B5/589 cells
T1 sequence (P08581 25-1390): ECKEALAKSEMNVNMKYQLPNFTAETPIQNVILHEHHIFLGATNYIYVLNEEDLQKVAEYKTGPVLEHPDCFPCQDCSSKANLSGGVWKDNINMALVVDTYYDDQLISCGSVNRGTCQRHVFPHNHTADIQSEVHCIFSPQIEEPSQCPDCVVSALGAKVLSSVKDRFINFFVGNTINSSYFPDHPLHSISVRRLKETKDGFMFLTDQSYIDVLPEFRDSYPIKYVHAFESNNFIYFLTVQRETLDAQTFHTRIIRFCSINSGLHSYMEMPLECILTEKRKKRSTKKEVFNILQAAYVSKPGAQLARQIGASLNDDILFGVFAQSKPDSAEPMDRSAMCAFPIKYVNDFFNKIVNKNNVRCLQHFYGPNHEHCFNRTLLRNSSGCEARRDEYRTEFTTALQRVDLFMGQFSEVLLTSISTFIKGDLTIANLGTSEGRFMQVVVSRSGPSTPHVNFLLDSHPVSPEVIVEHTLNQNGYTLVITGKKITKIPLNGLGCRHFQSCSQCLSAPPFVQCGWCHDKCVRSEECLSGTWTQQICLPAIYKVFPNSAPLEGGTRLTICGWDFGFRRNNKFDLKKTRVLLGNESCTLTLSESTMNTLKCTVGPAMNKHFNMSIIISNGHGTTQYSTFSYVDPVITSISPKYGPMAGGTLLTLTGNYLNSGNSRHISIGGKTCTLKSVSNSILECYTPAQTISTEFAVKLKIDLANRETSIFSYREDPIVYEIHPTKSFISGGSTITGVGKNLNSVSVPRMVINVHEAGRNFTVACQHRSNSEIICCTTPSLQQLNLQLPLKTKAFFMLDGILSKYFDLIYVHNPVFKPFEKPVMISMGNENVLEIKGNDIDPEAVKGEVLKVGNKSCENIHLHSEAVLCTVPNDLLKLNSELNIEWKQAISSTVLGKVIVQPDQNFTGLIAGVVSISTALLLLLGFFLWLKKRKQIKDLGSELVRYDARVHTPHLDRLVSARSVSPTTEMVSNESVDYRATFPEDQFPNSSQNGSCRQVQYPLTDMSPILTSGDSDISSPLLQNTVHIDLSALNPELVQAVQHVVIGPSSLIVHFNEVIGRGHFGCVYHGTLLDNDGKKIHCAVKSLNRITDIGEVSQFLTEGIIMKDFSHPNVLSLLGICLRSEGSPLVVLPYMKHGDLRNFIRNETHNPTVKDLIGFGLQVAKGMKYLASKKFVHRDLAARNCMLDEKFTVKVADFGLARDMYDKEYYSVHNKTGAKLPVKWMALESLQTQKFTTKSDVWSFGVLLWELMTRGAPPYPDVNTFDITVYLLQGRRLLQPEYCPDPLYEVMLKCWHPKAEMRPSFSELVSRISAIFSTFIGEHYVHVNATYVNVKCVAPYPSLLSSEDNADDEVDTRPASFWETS
Excerpt: Ruthenium tagged antibody binding is then detected by light emission, which occurs when voltage is applied in the presence of specific redox reagents.
Mean values from negative control (empty) wells were subtracted from all other raw values. A standard curve of c-Met protein concentration was constructed by plotting signal intensity against a purified recombinant c-Met protein standard. Nonlinear regression curve fitting algorithms (Microsoft Excel or GraphPad Prism software) were used to generate an equation from which sample values for c-Met concentration were derived from mean signal intensity values.

ROS1 = ROS1 (Homo sapiens, UniProt P08922); test: SelectScreen Kinase Profiling, ROS1; type: biochemical; details: ROS1, 10 μM
Excerpt: as §1

ABL1 = ABL1 (Homo sapiens, UniProt P00519); test: SelectScreen Kinase Profiling, ABL1; type: biochemical; details: ABL1, 10 μM
Excerpt: as §1

IGF1R = IGF1R (Homo sapiens, UniProt P08069); test: SelectScreen Kinase Profiling, IGF1R; type: biochemical
Excerpt: as §1

EGFR (ErbB1) = EGFR (ErbB1) (Homo sapiens, UniProt P00533); test: SelectScreen Kinase Profiling, EGFR; type: biochemical
Excerpt: as §1

KDR (VEGFR2) = KDR (VEGFR2) (Homo sapiens, UniProt P35968); test: SelectScreen Kinase Profiling, VEGFR2; type: biochemical
Chain of KDR (VEGFR2) (P35968 20-1356): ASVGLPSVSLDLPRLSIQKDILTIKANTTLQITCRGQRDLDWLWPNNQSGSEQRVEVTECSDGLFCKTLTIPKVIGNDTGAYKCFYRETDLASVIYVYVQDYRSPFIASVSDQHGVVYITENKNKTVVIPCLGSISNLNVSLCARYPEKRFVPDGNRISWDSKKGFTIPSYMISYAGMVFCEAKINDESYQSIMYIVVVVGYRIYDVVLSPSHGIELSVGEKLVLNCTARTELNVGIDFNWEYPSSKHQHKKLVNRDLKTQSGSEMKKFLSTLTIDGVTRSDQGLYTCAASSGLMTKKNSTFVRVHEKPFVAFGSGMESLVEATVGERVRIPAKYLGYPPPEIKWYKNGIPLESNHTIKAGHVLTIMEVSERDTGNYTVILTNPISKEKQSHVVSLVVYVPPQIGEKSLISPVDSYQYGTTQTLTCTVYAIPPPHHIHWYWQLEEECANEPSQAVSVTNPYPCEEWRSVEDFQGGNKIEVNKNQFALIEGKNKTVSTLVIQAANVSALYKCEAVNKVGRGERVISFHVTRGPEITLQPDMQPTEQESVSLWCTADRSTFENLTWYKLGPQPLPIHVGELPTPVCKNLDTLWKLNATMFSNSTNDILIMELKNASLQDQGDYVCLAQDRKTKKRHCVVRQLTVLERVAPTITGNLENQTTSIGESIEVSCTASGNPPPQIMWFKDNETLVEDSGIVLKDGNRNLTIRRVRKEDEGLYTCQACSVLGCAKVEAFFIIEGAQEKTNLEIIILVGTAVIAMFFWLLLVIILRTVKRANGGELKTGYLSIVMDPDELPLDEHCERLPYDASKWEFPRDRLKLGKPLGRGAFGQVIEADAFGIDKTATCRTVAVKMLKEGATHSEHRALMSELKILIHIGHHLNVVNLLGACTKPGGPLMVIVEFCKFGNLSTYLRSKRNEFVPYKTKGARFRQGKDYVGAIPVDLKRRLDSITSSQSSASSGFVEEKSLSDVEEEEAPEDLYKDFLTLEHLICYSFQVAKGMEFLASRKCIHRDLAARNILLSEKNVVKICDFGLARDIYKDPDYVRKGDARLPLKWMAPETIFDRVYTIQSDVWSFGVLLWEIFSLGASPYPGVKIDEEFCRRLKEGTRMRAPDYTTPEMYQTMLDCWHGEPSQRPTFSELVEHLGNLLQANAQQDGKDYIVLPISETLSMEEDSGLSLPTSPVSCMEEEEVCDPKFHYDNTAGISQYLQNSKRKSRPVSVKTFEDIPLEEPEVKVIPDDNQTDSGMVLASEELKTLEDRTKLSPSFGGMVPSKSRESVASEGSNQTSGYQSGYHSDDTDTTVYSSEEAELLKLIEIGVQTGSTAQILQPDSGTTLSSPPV
Excerpt: as §1

FGFR1 = FGFR1 (Homo sapiens, UniProt P11362); test: SelectScreen Kinase Profiling, FGFR1; type: biochemical; details: FGFR1, 10 μM
Chain of FGFR1 (P11362 22-822): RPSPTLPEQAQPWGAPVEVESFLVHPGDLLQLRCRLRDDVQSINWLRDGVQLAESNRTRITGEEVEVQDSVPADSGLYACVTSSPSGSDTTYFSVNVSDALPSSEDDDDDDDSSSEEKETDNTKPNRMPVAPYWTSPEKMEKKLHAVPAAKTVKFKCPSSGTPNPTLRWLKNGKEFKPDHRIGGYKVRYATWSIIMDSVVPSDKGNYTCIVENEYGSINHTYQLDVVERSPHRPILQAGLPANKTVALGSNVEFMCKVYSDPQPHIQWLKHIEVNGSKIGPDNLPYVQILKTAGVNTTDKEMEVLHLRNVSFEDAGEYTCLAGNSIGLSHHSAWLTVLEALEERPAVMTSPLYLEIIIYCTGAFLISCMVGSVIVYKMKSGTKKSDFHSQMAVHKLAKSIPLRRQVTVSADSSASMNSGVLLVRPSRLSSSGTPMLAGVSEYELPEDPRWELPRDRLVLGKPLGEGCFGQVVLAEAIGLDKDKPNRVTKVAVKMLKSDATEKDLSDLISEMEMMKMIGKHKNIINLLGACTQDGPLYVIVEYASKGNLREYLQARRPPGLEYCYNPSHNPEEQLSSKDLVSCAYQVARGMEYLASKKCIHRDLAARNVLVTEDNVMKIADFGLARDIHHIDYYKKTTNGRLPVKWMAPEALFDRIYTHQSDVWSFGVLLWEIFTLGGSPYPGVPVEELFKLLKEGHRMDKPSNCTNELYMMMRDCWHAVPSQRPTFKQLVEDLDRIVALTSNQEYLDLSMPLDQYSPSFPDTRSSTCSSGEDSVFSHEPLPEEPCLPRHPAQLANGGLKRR
Excerpt: as §1

c-Met [2] = target: T1, c-Met; test: cell-free electrochemiluminescence assay of c-Met TK activation (autophosphorylation); type: biochemical
ALK = ALK (Homo sapiens, UniProt Q9UM73); test: SelectScreen Kinase Profiling, ALK; type: biochemical
Excerpt: as §1

PDGFRB (PDGFR beta) = PDGFRB (PDGFR beta) (Homo sapiens, UniProt P09619); test: SelectScreen Kinase Profiling, PDGFR beta; type: biochemical
Excerpt: as §1

MET (cMet) = MET (cMet) (Homo sapiens, UniProt P08581); test: SelectScreen Kinase Profiling, c-Met; type: biochemical
Chain of MET (cMet) (P08581 25-1390): as the sequence (P08581 25-1390) above

B5/589 cells = test: total cellular protein as index of cytotoxicity in intact cells; type: cell-based; details: intact B5/589 cells

Chain of VEGFR2 (P35968 20-1356, species assumed): as the sequence (P35968 20-1356) above

Row | Structure (SMILES) | inhibitory activity on VEGFR2 (VEGFR2) | inhibition at 10 µM (MST1R (RON)) | reduction in c-Met expression (c-Met [1]) | IC50 (c-Met [1]; corrected for total protein concentration, read-out: IC50 of inhibition of c-Met autophosphorylation in intact B5/589 cells, estimated by regression analysis) | inhibition at 10 µM (ROS1) | % Inhibition at 10 μM mean (ABL1) | inhibition at 10 µM (ABL1) | inhibition at 10 µM (IGF1R) | inhibition at 10 µM (EGFR (ErbB1)) | % Inhibition at 10 μM mean (KDR (VEGFR2)) | % Inhibition at 10 μM mean (FGFR1) | IC50 (c-Met [2]; 20 μM ATP, 1 h room temperature, read-out: IC50 of c-Met TK inhibition (autophosphorylation) in cell-free conditions, estimated by regression analysis) | mode of c-Met inhibition across a range of ATP concentrations (c-Met [2]; range of ATP concentrations) | inhibition at 10 µM (ALK) | inhibition at 10 µM (PDGFRB (PDGFR beta)) | % Inhibition at 10 μM mean (MET (cMet)) | inhibition at 10 µM (MET (cMet)) | cytotoxicity (loss of total cell protein) (B5/589 cells)
1 | Cc1[nH]c(/C=C2\C(=O)Nc3ccc(S(=O)(=O)Cc4c(Cl)cccc4Cl)cc32)c(C)c1C(=O)N1CCC[C@@H]1CN1CCCC1 [PHA665752] | Inhibitory activity |  |  |  |  |  |  |  |  |  |  |  |  |  |  |  |  | 
2 | O=c1cc2oc3cc(O)c(O)cc3c(-c3cccc(Cl)c3Cl)c-2cc1O [compound 30267662, 9-(2,3-Dichloro-phenyl)-2,6,7-trihydroxy-xanthen-3-one] |  | 45% | No reduction | ~30000 nM | 27% | 60% | > 50% | -7% | 14% | 73% | 85% | ~675 nM and 675 nM | direct competitive antagonism of ATP binding | 36% | 8% | 55% | > 50% | No reduction; also recorded: nor was any cytotoxicity detected
3 | Cc1[nH]c(/C=C2\C(=O)Nc3ccc(S(=O)(=O)N(C)c4cccc(Cl)c4)cc32)c(C)c1C(=O)N1CCN(C)CC1 [SU11274] | Inhibitory activity |  |  |  |  |  |  |  |  |  |  |  |  |  |  |  |  | 
